Several values for one entry are separate records, joined by “and”; a condition that tells them apart may be missing. Equal entries are not always repeated.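 Growth conditions: 96-well plates. Treatment: test compound, 48 hours, 5 concentrations. Analysis: linear interpolation between bracketing concentrations; unreached endpoints set to highest concentration. GI50 marks 50% less growth. The concentration for full growth arrest is given as TGI.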
Experiments:
Experiment in all cases: inhibition of tumour cell growth, NCI panel, 48 h
ACHN renal = system: ACHN renal
EKVX NSCLC = system: EKVX NSCLC
HCT-116 colon = system: HCT-116 colon
HCT-15 colon = system: HCT-15 colon
MALME-3M melanoma = system: MALME-3M melanoma
NCI-H460 lung = system: NCI-H460 lung
OVCAR-5 ovarian = system: OVCAR-5 ovarian
OVCAR-8 ovarian = system: OVCAR-8 ovarian
U251 CNS = system: U251 CNS
SF-295 CNS = system: SF-295 CNS

Row | SMILES | TGI (ACHN renal) | TGI (EKVX NSCLC) | TGI (HCT-116 colon) | TGI (HCT-15 colon) | TGI (MALME-3M melanoma) | TGI (NCI-H460 lung) | TGI (OVCAR-5 ovarian) | TGI (OVCAR-8 ovarian) | TGI (U251 CNS) | TGI (SF-295 CNS) | GI50 (ACHN renal) | GI50 (EKVX NSCLC) | GI50 (HCT-116 colon) | GI50 (HCT-15 colon) | GI50 (MALME-3M melanoma) | GI50 (NCI-H460 lung) | GI50 (OVCAR-5 ovarian) | GI50 (SF-295 CNS) | GI50 (U251 CNS) | GI50 (OVCAR-8 ovarian)
1 | C1=Nc2ccccc2Cn2nncc21 | > 100 µM | > 100 µM | > 100 µM | > 100 µM | > 100 µM | > 100 µM | > 100 µM | > 100 µM | > 100 µM |  |  |  |  |  |  |  |  |  |  | 
2 | CC(C)(C)CNCCCNc1ccc(Cl)cc1 | > 100 µM | > 100 µM | > 100 µM | > 100 µM | 53.9 µM | > 100 µM | > 100 µM | > 100 µM | > 100 µM | 69.1 µM |  |  |  |  |  |  |  |  |  | 
3 | Clc1ccc(C2CC(c3cccc(Nc4ccncc4)c3)=NN2c2ccccc2)cc1 (centres undefined) | 3.02 µM | 3.12 µM | 2.98 µM | 2.83 µM | 3.14 µM | 3.65 µM | 3.07 µM |  | 3.81 µM | 3.07 µM | 1.66 µM | 1.58 µM | 1.48 µM | 1.42 µM | 1.58 µM | 1.91 µM | 1.66 µM | 1.66 µM | 1.89 µM | 
4 | CC(C)=CC1C(COC(=O)c2ccccc2Cl)C1(C)C (centres undefined) | > 100 µM | 92.6 µM | > 100 µM | 75.4 µM | 70.3 µM | > 100 µM | > 100 µM | > 100 µM | 90.2 µM | > 100 µM |  |  |  |  |  |  |  |  |  | 
5 | O=[N+]([O-])c1ccc(NNN=Nc2ccc(-c3nc4ccccc4[nH]3)cc2)c([N+](=O)[O-])c1 | > 100 µM | 96.4 µM | > 100 µM | > 100 µM | > 100 µM | > 100 µM | > 100 µM | > 100 µM | > 100 µM | > 100 µM |  |  |  |  |  |  |  |  |  | 
6 | CCN(CC)CCCC(C)Nc1c2ccc(Cl)cc2nc2cc(Cl)ccc12 (centres undefined) |  | 29.8 µM | 7.56 µM | 9.85 µM | 25.5 µM | 12 µM | 21.2 µM | 19.3 µM | 14.3 µM | 8.49 µM |  |  |  |  |  |  |  |  |  | 
7 | CC(C)C(=O)Nc1ccc(-c2nc(-c3cccc(OCCN4CCOCC4)c3)c(-c3ccnc(Br)c3)[nH]2)cc1 | 94.1 µM | > 100 µM | 13.5 µM | 4.67 µM | 3.3 µM | 25.4 µM | > 100 µM | > 100 µM | 14.5 µM | 2.88 µM | 3.87 µM | 4.01 µM | 3.04 µM | 2.02 µM | 1.58 µM | 3.98 µM | 6.42 µM | 1.09 µM | 2.27 µM | 4.16 µM
8 | CC(C)NC(=O)OCc1nnn2c1CCC2 | > 100 µM | > 100 µM | > 100 µM | > 100 µM | > 100 µM | > 100 µM | > 100 µM | > 100 µM | > 100 µM | > 100 µM |  |  |  |  |  |  |  |  |  | 
9 | COC1=CC(=O)c2c(c(COC(C)=O)cn2C)C1=O | 0.173 µM | 0.727 µM | 0.216 µM | 0.0522 µM | 0.117 µM | 0.835 µM | 0.0689 µM | 0.313 µM | 0.734 µM | 0.0692 µM |  |  |  |  |  |  |  |  |  | 
10 | Clc1ccc(OCc2nnc3sc(SSc4nn5c(COc6ccc(Cl)cc6)nnc5s4)nn23)cc1 | > 100 µM | > 100 µM | > 100 µM | > 100 µM | > 100 µM | > 100 µM | > 100 µM | > 100 µM | > 100 µM | > 100 µM |  |  |  | 86.2 µM |  |  |  |  |  | 
11 | CC[C@@]1(O)C(=O)OCc2c1cc1n(c2=O)Cc2cc3c(CN(C)C)c(O)ccc3nc2-1 |  |  | 18.9 µM and 11.7 µM |  |  | 0.499 µM and 1.58 µM and 0.222 µM |  |  |  |  | < 0.01 µM and 0.00474 µM and 0.0188 µM | 0.452 µM and 0.468 µM and 2.16 µM | 0.0681 µM | 0.304 µM and 0.0813 µM and 0.67 µM | 0.0881 µM and 0.157 µM and 0.39 µM | < 0.01 µM and 0.00456 µM and 0.021 µM | 0.168 µM and 0.217 µM and 0.407 µM | < 0.01 µM and 0.0104 µM and 0.0304 µM |  | 
12 | CC1(CO)C(O)CCC2(C)C1C(O)CC1CC3CC12CCC3(O)CO (centres undefined) |  | > 225 µM | > 225 µM | > 225 µM | > 225 µM | > 225 µM | > 225 µM | > 225 µM | > 225 µM | > 104 µM |  |  |  |  |  |  |  |  |  | 
13 | CC(C(=O)NCCNC(=O)CCCC(=O)N(C)O)C(=O)NCCNC(=O)CCCC(=O)N(C)O | > 100 µM | > 100 µM |  | > 100 µM | > 100 µM | > 100 µM | > 100 µM | > 100 µM | > 100 µM | > 100 µM |  |  |  |  |  |  |  |  |  | 
14 | Fc1ccc(Nc2ncc(-c3cc(F)c(Cl)cc3Cl)s2)cc1Cl | 51.5 µM | 31.3 µM | 7.2 µM | > 100 µM | 31.2 µM | 9.61 µM | 30.5 µM | 64.2 µM | 23.7 µM | 31 µM | 19.3 µM | 16.3 µM | 2.82 µM | 3.44 µM | 14 µM | 2.98 µM | 15.8 µM | 15.9 µM | 6.09 µM | 20.1 µM
15 | COc1cc(/C=N/N=C(\N)NO)ccc1O | > 100 µM | > 100 µM | > 100 µM | > 100 µM | > 100 µM | > 100 µM | 90.3 µM | > 100 µM | > 100 µM | > 100 µM |  |  |  |  |  |  |  |  |  | 
16 | CN(CC(=O)O)CC(=O)O | > 100 µM | > 100 µM | > 100 µM | > 100 µM | > 100 µM | > 100 µM | > 100 µM | > 100 µM | > 100 µM | > 100 µM |  |  |  |  |  |  |  |  |  | 
17 | OCC(O)C(O)C(O)C(O)CNCCO/N=C1/C(c2c(O)[nH]c3ccccc23)=Nc2ccccc21 (centres undefined) | > 50 µM | > 50 µM | 38.2 µM | > 50 µM | 27.7 µM | > 50 µM | > 50 µM | > 50 µM | 39.8 µM | > 50 µM |  |  |  |  |  |  |  |  |  | 
18 | Fc1cc(C2=Nn3c(CNc4ccc(Cl)cc4)nnc3S/C2=C\c2ccc(-c3ccc(Cl)cc3)o2)c(Cl)cc1Cl | > 100 µM | 67.8 µM | > 100 µM | > 100 µM | 60.7 µM | > 100 µM | 98.5 µM | > 100 µM | 57.6 µM | 52.4 µM |  |  |  |  |  |  |  |  |  | 
19 | CNCCCn1c2c(c3ccc(Cl)cc3c1=O)C(=O)c1cc(OC)cnc1-2 | 1.58 µM |  |  |  |  | 1.25 µM | 3.18 µM | 3.5 µM |  | 1.38 µM | 0.224 µM |  |  |  |  | 0.0462 µM | 1.69 µM | 0.132 µM |  | 1.18 µM
20 | O=S(=O)(Nc1nccs1)c1ccc([As](=O)(O)O)cc1 | > 100 µM | > 100 µM | > 100 µM | > 100 µM | > 100 µM | > 100 µM | > 100 µM | > 100 µM | > 100 µM | > 100 µM |  |  |  |  |  |  |  |  |  | 
21 | O=c1ccc2c(Cl)cccc2o1 | > 100 µM | > 100 µM | > 100 µM |  | > 100 µM | > 100 µM | > 100 µM | > 100 µM | > 100 µM | > 100 µM |  |  |  |  |  |  |  |  |  | 
22 | COc1ccc(N2C(=O)C(=O)N(C)C2=O)c2ccccc12 | > 10 µM | > 10 µM | > 10 µM | > 10 µM | > 10 µM | > 10 µM | > 10 µM | > 10 µM | > 10 µM | > 10 µM |  |  |  |  |  |  |  |  |  | 
23 | CSC1=C(SC)C(=O)c2cn(C)c(=O)cc2C1=O | 3.32 µM | 33.6 µM | 3.33 µM | 4.78 µM | 5.41 µM | 32 µM | 35.2 µM | > 70.9 µM | 26.2 µM | 26 µM |  |  |  |  |  |  |  |  |  | 
24 | O=[N+]([O-])c1ccc(Cc2nc3cc4ccccc4cc3[nH]2)cc1C(F)(F)F | 29.3 µM | > 100 µM | 26.8 µM | > 100 µM | 25.1 µM | 38.5 µM | 27.5 µM | 48.5 µM | 37.3 µM | 29 µM |  |  |  |  |  |  |  |  |  | 
25 | OC(c1ccccc1)C1CC2C=CC1C2 (centres undefined) | > 100 µM | > 100 µM | > 100 µM | > 100 µM | > 100 µM | > 100 µM | > 100 µM | > 100 µM | > 100 µM | > 100 µM |  |  |  |  |  |  |  |  |  | 
